# Test results published in patent US20110002843A1, “METHOD OF DETECTING MYOCARDIAL DYSFUNCTION IN PATIENTS HAVING A HISTORY OF ASTHMA OR BRONCHOSPASM” (priority 2005, published 2011).
# Key:
# A1 adenosine receptor = biological target: T1, A1 adenosine receptor (Cavia porcellus, UniProt P47745); test: Langendorff guinea pig heart preparation, prolongation of stimulus-QRS interval (negative dromotropy)
# T1 sequence (P47745 1-326): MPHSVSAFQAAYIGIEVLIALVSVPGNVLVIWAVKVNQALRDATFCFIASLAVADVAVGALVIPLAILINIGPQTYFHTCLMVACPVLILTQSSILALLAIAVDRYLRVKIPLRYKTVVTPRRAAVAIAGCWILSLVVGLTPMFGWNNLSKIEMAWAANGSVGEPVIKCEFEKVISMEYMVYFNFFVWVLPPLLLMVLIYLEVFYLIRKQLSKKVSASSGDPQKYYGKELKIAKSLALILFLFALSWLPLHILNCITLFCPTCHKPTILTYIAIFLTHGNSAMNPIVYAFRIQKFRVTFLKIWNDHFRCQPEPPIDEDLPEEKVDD
# Method: The A1/A2A selectivity in Table 1 was calculated as the quotient of the EC50 of stimulus-QRS prolongation divided by the EC50 of coronary vasodilation.
# [1] = Isolated and denervated atrial preparations, rate
structure (smiles),measurement,setting,value
"Nc1nc(N/N=C/C2CCCCC2)nc2c1ncn2[C@@H]1O[C@H](CO)[C@@H](O)[C@H]1O (stereo in doubt) [Binodenoson, 2-{2-[(Cyclohexyl)methylene]hydrazino}adenosine]",EC50,A1 adenosine receptor,3.5 µM
same,atrial rate,[1],did not increase the rate
